According to ChEMBL document CHEMBL1201862, “PubChem BioAssay data set” (2004):
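Step 1: Grow cells in 96-well plates. Step 2: Expose to compound for 48 hours at 5 concentrations. Step 3: Interpolate endpoints linearly; if unreached, use highest concentration. Here, GI50 denotes the concentration required for 50% inhibition of growth.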 Active and inactive are the calls of the source. Rule as the data show it: active = GI50 up to about 1.1 µM and inactive = higher.

Tests used:
Assay in all cases: inhibition of tumour cell growth, NCI panel, 48 h
A498 = system: A498
IGROV-1 = system: IGROV-1
OVCAR-4 = system: OVCAR-4
SN12C = system: SN12C
NCI-H460 = system: NCI-H460
SW-620 = system: SW-620
NCI-H23 = system: NCI-H23
CAKI-1 = system: CAKI-1
PC-3 = system: PC-3
K562 = system: K562
NCI-H522 = system: NCI-H522
RPMI-8226 = system: RPMI-8226
ACHN = system: ACHN
MDA-MB-231 = system: MDA-MB-231
SK-MEL-28 = system: SK-MEL-28
TK-10 = system: TK-10
LOX IMVI = system: LOX IMVI
HCT-116 = system: HCT-116
SK-MEL-5 = system: SK-MEL-5
HL-60 = system: HL-60

Measured: GI50

Cl/C(=N\c1cccc2ccccc12)N(c1ccccc1)c1ccccc1
inactive: A498 > 100 µM | IGROV-1 > 100 µM | OVCAR-4 > 100 µM | SN12C > 100 µM | NCI-H460 28.4 µM | SW-620 92.7 µM | NCI-H23 > 100 µM | CAKI-1 > 100 µM | PC-3 44.6 µM | K562 31.8 µM | NCI-H522 41.2 µM | RPMI-8226 27.1 µM | ACHN 66.7 µM | MDA-MB-231 > 100 µM | SK-MEL-28 > 100 µM | TK-10 72.3 µM | LOX IMVI > 100 µM | HCT-116 73.5 µM

CNC/C(Cl)=N/S(=O)(=O)c1ccc(C)cc1
inactive: A498 20 µM | IGROV-1 17.2 µM | OVCAR-4 10 µM | SN12C 9.75 µM | NCI-H460 8.17 µM | SW-620 9.16 µM | NCI-H23 7.83 µM | CAKI-1 13.2 µM | PC-3 9.59 µM | K562 36.1 µM | NCI-H522 6.58 µM | RPMI-8226 6.61 µM | SK-MEL-5 15 µM | ACHN 15.8 µM | MDA-MB-231 13.7 µM | SK-MEL-28 31.6 µM | TK-10 12.7 µM | LOX IMVI 7.16 µM | HCT-116 8.09 µM

CC(=O)c1c(C)n(C)c2c1nnc1ccccc12
inactive: A498 21.1 µM | OVCAR-4 > 100 µM | SN12C 40.3 µM | NCI-H460 25.7 µM | SW-620 44.5 µM | NCI-H23 37.5 µM | CAKI-1 35.7 µM | PC-3 59.3 µM | NCI-H522 > 100 µM | RPMI-8226 38.6 µM | SK-MEL-5 32 µM | ACHN 34.4 µM | MDA-MB-231 59 µM | SK-MEL-28 > 100 µM | TK-10 29.4 µM | LOX IMVI 43 µM | HCT-116 33.7 µM

Cc1cnc2c(c1C)C(=O)c1ccccc1C2=O
inactive: A498 > 100 µM | IGROV-1 32.6 µM | OVCAR-4 18.8 µM | SN12C 28.6 µM | NCI-H460 18.8 µM | SW-620 27.5 µM | NCI-H23 44.7 µM | CAKI-1 30 µM | PC-3 26 µM | K562 39.4 µM | NCI-H522 > 100 µM | RPMI-8226 24.6 µM | SK-MEL-5 11.8 µM | ACHN 36.4 µM | MDA-MB-231 26.5 µM | SK-MEL-28 > 100 µM | TK-10 > 100 µM | HCT-116 36.1 µM

COc1ccc(C[n+]2cccc(O)c2)cc1
inactive: A498 > 100 µM | IGROV-1 > 100 µM | SN12C > 100 µM | HL-60 > 100 µM | NCI-H460 > 100 µM | SW-620 > 100 µM | NCI-H23 > 100 µM | PC-3 > 100 µM | K562 > 100 µM | SK-MEL-5 > 100 µM | ACHN > 100 µM | MDA-MB-231 > 100 µM | SK-MEL-28 > 100 µM | TK-10 > 100 µM | HCT-116 > 100 µM

CCOP(=O)(OCC)c1cc(-c2ccccc2)ccc1N
inactive: A498 > 100 µM | IGROV-1 > 100 µM | OVCAR-4 89.1 µM | NCI-H460 > 100 µM | SW-620 > 100 µM | NCI-H23 > 100 µM | CAKI-1 > 100 µM | PC-3 > 100 µM | K562 > 100 µM | NCI-H522 61.8 µM | RPMI-8226 > 100 µM | SK-MEL-5 > 100 µM | ACHN > 100 µM | MDA-MB-231 > 100 µM | SK-MEL-28 > 100 µM | TK-10 > 100 µM | HCT-116 66.5 µM

C=CC(=O)N1C/C(=C\c2ccc(N(C)C)cc2)C(=O)/C(=C/c2ccc(N(C)C)cc2)C1
inactive: A498 > 100 µM | IGROV-1 > 100 µM | OVCAR-4 > 100 µM | SN12C > 100 µM | NCI-H460 > 100 µM | SW-620 40.8 µM | NCI-H23 > 100 µM | CAKI-1 > 100 µM | PC-3 34 µM | K562 8.97 µM | SK-MEL-5 > 100 µM | ACHN > 100 µM | MDA-MB-231 > 100 µM | SK-MEL-28 > 100 µM | TK-10 > 100 µM | LOX IMVI 11.2 µM | HCT-116 40.6 µM

COc1ccc(C(CC(=O)C(C)(C)CN2CCCCC2)SCCS(=O)(=O)O)cc1 (centres undefined)
inactive: A498 26.2 µM | IGROV-1 53.2 µM | OVCAR-4 34 µM | SN12C 54.2 µM | HL-60 41.4 µM | NCI-H460 22.6 µM | SW-620 32.6 µM | NCI-H23 25.1 µM | CAKI-1 34.9 µM | PC-3 53.7 µM | K562 22.9 µM | NCI-H522 21.5 µM | RPMI-8226 24.9 µM | SK-MEL-5 20.9 µM | ACHN 33.2 µM | MDA-MB-231 27.5 µM | TK-10 45.7 µM | HCT-116 29 µM
